The test system of test [1] is N. gonorrhoeae ATCC 49226. Description: MIC assay for N. gonorrhoeae, broth microdilution in Todd-Hewitt (TH) broth. The test is classed as cell-based. The conditions noted are these: Neisseria gonorrhoeae, ATCC49226; Antibacterial Activity against N. gonorrhoeae ATCC 49226 in TH. From the text:
MIC assays for N. gonorrhoeae were done using the ATCC 49226 strain. The procedure guidelines recommended by the Clinical and Laboratory Standards Institute (CLSI) for the broth microdilution MIC assay were modified by substituting […]. Also, the recommended bacterial inoculum was modified to meet the high inoculum demands needed for N. gonorrhoeae growth. A 96-well plate containing TH broth with 2-fold serial dilution of compounds was inoculated with log-phase bacterial at 2.5×10^7 CFU/mL. The final volume in each well was 200 μL. Each compound was tested in duplicate. The microtiter plates were incubated in an […] environment for 24 hours at 37° C. using the candle jar technique. Then the bacterial growth was tested by reading the plate with a SpectraMax iD5 plate reader (Molecular Devices, Inc.) at 600 nm. The MIC was defined as the lowest compound concentration that inhibited bacteria growth.

The subject of test [2] is Methicillin-susceptible S. aureus (MSSA) ATCC 19636. The test is described as follows: MIC assay, CLSI broth microdilution in CAMH broth. It counts as cell-based, Staphylococcus aureus. Here is the method: (§1) MIC assays for various Gram-negative and Gram-positive strains were conducted in accordance with the CLSI guidelines for broth microdilution. A 96-well plate containing CAMH broth with 2-fold serial dilution of compounds was inoculated with log-phase bacterial at 5×10^5 CFU/mL. The final volume in each well was 100 μL. Each compound was tested in duplicate. The microtiter plates were incubated in an aerobic environment for 18 hours at 37° C. Then the bacterial growth was tested by reading the plate with a SpectraMax iD5 plate reader (Molecular Devices, Inc.) at 600 nm. The MIC was defined as the lowest compound concentration that inhibited bacteria growth.
(§2) The following Gram-negative and Gram-positive strains were used in the aerobic MIC procedure: • P. aeruginosa ATCC 27853 • A. baumannii ATCC 19606 • E. coli ATCC 25922 • E. coli W4573 • E. coli N43 • K. pneumoniae ATCC 10031 • K. pneumoniae ATCC 13883 • S. sonnei ATCC 29930 • P. mirabilis ATCC 29906 • Methicillin-susceptible S. aureus (MSSA) ATCC 19636 • Methicillin-resistant S. aureus (MRSA) ATCC 33951

Test [3] relates to P. mirabilis ATCC 29906. Description: MIC assay, CLSI broth microdilution in CAMH broth. It counts as cell-based, Proteus mirabilis. The procedure:
as §1, §2

The subject of test [4] is Methicillin-resistant S. aureus (MRSA) ATCC 33591. The test is described as follows: MIC assay, CLSI broth microdilution in CAMH broth. The test is classed as cell-based, Staphylococcus aureus. Here is the method: as §1, with “growth. […]” for “growth.”

The structures appear in SMILES notation. ≈ marks a conversion by molar mass, not a printed value. A value given as a limit tells only on which side of the number the result lay.

In test [1], `Nc1nc(N)c2ccc3c(ccn3Cc3ccccc3)c2n1` [Example 1, 7-benzyl-7H-pyrrolo[2,3-h]quinazoline-2,4-diamine] returned an MIC of 8 µg/mL (≈ 27.6 µM).
Regarding `N#Cc1ccc(Cn2ccc3c4nc(N)nc(N)c4ccc32)cc1` [Example 5, 4-((2,4-diamino-7H-pyrrolo[2,3-h]quinazolin-7-yl)methyl)benzonitrile], 16 µg/mL (≈ 50.9 µM) was the least that counted as inhibitory in test [1] (MIC).
In test [1], `Nc1nc(N)c2ccc3c(ccn3Cc3cccc(C(F)(F)F)c3)c2n1` [Example 8, 7-(3-(trifluoromethyl)benzyl)-7H-pyrrolo[2,3-h]quinazoline-2,4-diamine] displayed an MIC of 8 µg/mL (≈ 22.4 µM).
The same measure, in the same setting: the same measure for `Nc1nc(N)c2ccc3c(ccn3Cc3ccc(OC(F)(F)F)cc3)c2n1` [Example 9, 7-(4-(trifluoromethoxy)benzyl)-7H-pyrrolo[2,3-h]quinazoline-2,4-diamine]: 16 µg/mL (≈ 42.9 µM); for `CC(C)c1ccc(Cn2ccc3c4nc(N)nc(N)c4ccc32)cc1` [Example 10, 7-(4-isopropylbenzyl)-7H-pyrrolo[2,3-h]quinazoline-2,4-diamine]: 4 µg/mL (≈ 12.1 µM); for `Nc1nc(N)c2ccc3c(ccn3Cc3ccc(C(F)(F)F)c(F)c3)c2n1` [Example 11, 7-(3-fluoro-4-(trifluoromethyl)benzyl)-7H-pyrrolo[2,3-h]quinazoline-2,4-diamine]: 4 µg/mL (≈ 10.7 µM).
The same measure, in the same setting: the same measure for `Nc1nc(N)c2ccc3c(ccn3Cc3cc(Cl)ccc3F)c2n1` [Example 12, 7-(5-chloro-2-fluorobenzyl)-7H-pyrrolo[2,3-h]quinazoline-2,4-diamine]: 4 µg/mL (≈ 11.7 µM); for `Nc1nc(N)c2ccc3c(ccn3Cc3cc(Cl)ccc3Cl)c2n1` [Example 13, 7-(2,5-dichlorobenzyl)-7H-pyrrolo[2,3-h]quinazoline-2,4-diamine]: 16 µg/mL (≈ 44.7 µM); for `COc1cc(Cn2ccc3c4nc(N)nc(N)c4ccc32)cc(OC)c1` [Example 14, 7-(3,5-dimethoxybenzyl)-7H-pyrrolo[2,3-h]quinazoline-2,4-diamine]: above 64 µg/mL.
`Nc1nc(N)c2ccc3c(ccn3Cc3ccc(Oc4ccccc4)cc3)c2n1` [Example 15, 7-(4-phenoxybenzyl)-7H-pyrrolo[2,3-h]quinazoline-2,4-diamine]: in test [1], the lowest concentration to inhibit growth (MIC) was 8 µg/mL (≈ 21 µM).
The compound `Nc1nc(N)c2ccc3c(ccn3Cc3ccc(-c4ccccc4)cc3)c2n1` [Example 17, 7-([1,1′-biphenyl]-4-ylmethyl)-7H-pyrrolo[2,3-h]quinazoline-2,4-diamine] gave an MIC in test [1] of 8 µg/mL (≈ 21.9 µM).
Regarding `Nc1nc(N)c2ccc3c(ccn3Cc3cccc(-c4ccccc4)c3)c2n1` [Example 18, 7-([1,1′-biphenyl]-3-ylmethyl)-7H-pyrrolo[2,3-h]quinazoline-2,4-diamine], in test [1], 16 µg/mL (≈ 43.8 µM) was the least that counted as inhibitory (MIC).
Regarding `N#Cc1ccccc1-c1ccc(Cn2ccc3c4nc(N)nc(N)c4ccc32)cc1` [Example 19, 4′-((2,4-diamino-7H-pyrrolo[2,3-h]quinazolin-7-yl)methyl)-[1,1′-biphenyl]-2-carbonitrile], 0.25 µg/mL (≈ 0.64 µM) was the least that counted as inhibitory in test [1] (MIC).
`COC(=O)c1ccc(-c2ccc(Cn3ccc4c5nc(N)nc(N)c5ccc43)cc2)cc1` [Example 20, methyl 4′-((2,4-diamino-7H-pyrrolo[2,3-h]quinazolin-7-yl)methyl)-[1,1′-biphenyl]-4-carboxylate] returned a minimal inhibitory concentration (MIC) in test [1] above 32 µg/mL.
Turning to `Nc1nc(N)c2ccc3c(ccn3Cc3ccc(Br)cn3)c2n1` [Example 22, 7-((5-bromopyridin-2-yl)methyl)-7H-pyrrolo[2,3-h]quinazoline-2,4-diamine], the MIC in test [1] came to 16 µg/mL (≈ 43.3 µM).
`Cn1c(Cn2ccc3c4nc(N)nc(N)c4ccc32)nc2ccccc21` [Example 23, 7-((1-methyl-1H-benzo[d]midazole-2-yl)methyl)-7H-pyrrolo[2,3-h]quinazoline-2,4-diamine] had an MIC in test [1] above 64 µg/mL.
On the same count and under the same terms, for `Nc1nc(N)c2ccc3c(ccn3Cc3nc(-c4ccccc4)cs3)c2n1` [Example 24, 7-((4-phenylthiazol-2-yl)methyl)-7H-pyrrolo[2,3-h]quinazoline-2,4-diamine] the value was 4 µg/mL (≈ 10.7 µM); for `CC(C)=CCn1ccc2c3nc(N)nc(N)c3ccc21` [Example 25, 7-(3-methylbut-2-en-1-yl)-7H-pyrrolo[2,3-h]quinazoline-2,4-diamine], 4 µg/mL (≈ 15 µM); for `Nc1nc(N)c2ccc3c(ccn3CC3CC3)c2n1` [Example 28, 7-(cyclopropylmethyl)-7H-pyrrolo[2,3-h]quinazoline-2,4-diamine], 8 µg/mL (≈ 31.6 µM).
`Nc1nc(N)c2ccc3c(ccn3C(=O)c3ccccc3)c2n1` [Example 29, (2,4-diamino-7H-pyrrolo[2,3-h]quinazolin-7-yl)(phenyl)methanone]: in test [1], the MIC was determined as 32 µg/mL (≈ 105 µM).
The same measure, in the same setting: the same measure for `Cc1cc2c3nc(N)nc(N)c3ccc2n1Cc1cccc(Br)c1` [Example 30, 7-(3-bromobenzyl)-8-methyl-7H-pyrrolo[2,3-h]quinazoline-2,4-diamine]: 16 µg/mL (≈ 41.9 µM); for `Cc1cc2c3nc(N)nc(N)c3ccc2n1Cc1ccc(-c2ccccc2-c2nnn[nH]2)cc1` [Example 32, 7-((2′-(1H-tetrazol-5-yl)-[1,1′-biphenyl]-4-yl)methyl)-8-methyl-7H-pyrrolo[2,3-h]quinazoline-2,4-diamine]: above 64 µg/mL.
For `Cc1cc2c3nc(N)nc(N)c3ccc2n1Cc1nc2ccccc2s1` [Example 33, 7-(benzo[d]thiazol-2-ylmethyl)-8-methyl-7H-pyrrolo[2,3-h]quinazoline-2,4-diamine], in test [1], the MIC turned out to be 8 µg/mL (≈ 22.2 µM).
With `N#Cc1ccccc1-c1ccc(Cn2ccc3c4nc(N)nc(N)c4ccc32)c(F)c1F` [Example 40, 4′-((2,4-diamino-7H-pyrrolo[2,3-h]quinazolin-7-yl)methyl)-2′,3′-difluoro-[1,1′-biphenyl]-2-carbonitrile], the “Intrinsic MIC in CAMH” value is on record as 0.25¤ in test [2], >64¤ in test [3] and ≤0.063¤ in test [4].
As to `N#Cc1ccccc1-c1ccc(Cn2ccc3c4nc(N)nc(N)c4c(Br)cc32)cc1F` [Example 46, 4′-((2,4-diamino-5-bromo-7H-pyrrolo[2,3-h]quinazolin-7-yl)methyl)-2′-fluoro-[1,1′-biphenyl]-2-carbonitrile], the “Intrinsic MIC in CAMH” value in test [2] is on record as 4¤; in test [3], >64¤; in test [4], 2¤.
For `Nc1nc(N)c2c(Br)cc3c(ccn3Cc3cccc(Br)c3)c2n1` [Example 47, 5-bromo-7-(3-bromobenzyl)-7H-pyrrolo[2,3-h]quinazoline-2,4-diamine], the “Intrinsic MIC in CAMH” value in test [2] was 4¤; in test [3], 8¤; in test [4], 4¤.
Consider `Nc1nc(NCc2cccc(Br)c2)nc2c1c(Br)cc1c2ccn1Cc1cccc(Br)c1` [Example 48, 5-bromo-N^2,7-bis(3-bromobenzyl)-7H-pyrrolo[2,3-h]quinazoline-2,4-diamine], for which the “Intrinsic MIC in CAMH” value in test [2], in test [3] and in test [4] was >64¤ each time.
For the compound `N#Cc1ccccc1-c1ccc(Cn2ccc3c4nc(N)nc(N)c4cnc32)cc1F` [Example 51, 4′-((2,4-diamino-7H-pyrrolo[3′,2′:5,6]pyrido[4,3-d]pyrimidin-7-yl)methyl)-2′-fluoro-[1,1′-biphenyl]-2-carbonitrile], the “Intrinsic MIC in CAMH” value in test [2] is ≤0.063¤; in test [3], >64¤; in test [4] it was ≤0.063¤.
As for `CN[C@H](CC(C)C)C(=O)N[C@H]1C(=O)N[C@@H](CC(N)=O)C(=O)N[C@H]2C(=O)N[C@H]3C(=O)N[C@H](C(=O)N[C@H](C(=O)O)c4cc(O)cc(O)c4-c4cc3ccc4O)[C@H](O)c3ccc(c(Cl)c3)Oc3cc2cc(c3O[C@@H]2O[C@H](CO)[C@@H](O)[C@H](O)[C@H]2O[C@H]2C[C@](C)(N)[C@H](O)[C@H](C)O2)Oc2ccc(cc2Cl)[C@H]1O` [VAN, reference compound], the “Intrinsic MIC in CAMH” value in test [2] and in test [4] was 2¤ throughout.

The record behind these values is patent US20240317749A1, “THERAPEUTIC COMPOUNDS” (priority 2021, published 2024).
